From ChEMBL document CHEMBL3885861, “Open TG-GATES”

Organism: Rattus norvegicus
Assay: Open TG-GATES - Regimen: Daily Repeat
Assay type: toxicity, organism-based, Sprague-Dawley
Design: regimen Daily Repeat, gender Male, age 6 weeks
Details: in vivo, po, route gavage; for APTT / Bas / Eos / Fbg / Hb / Ht / Lym / MCH / MCHC / MCV / Mono / Neu / PT / Plat / RBC / Ret / WBC: tissue Blood; for KIDNEY_L / KIDNEY_R / KIDNEY_TOTAL: tissue Kidney; for LIVER: tissue Liver; for A/G / ALP / ALT / AST / BUN / CRE / Ca / Cl / DBIL / GLC / IP / K / LDH / Na / PL / RALB / TBIL / TC / TG / TP / gamma-GTP: tissue Plasma
[1] = 0 mg/kg, 72 h, dose level Control, time 3 day
[2] = 0 mg/kg, […], dose level Control, time 7 day
[3] = 0 mg/kg, […], dose level Control, time 14 day
[4] = 0 mg/kg, […], dose level Control, time 28 day
[5] = 10 mg/kg, 72 h, dose level Low, time 3 day
[6] = 10 mg/kg, […], dose level Low, time 7 day
[7] = 10 mg/kg, […], dose level Low, time 14 day
[8] = 10 mg/kg, […], dose level Low, time 28 day

CN(C)CCN(Cc1cccs1)c1ccccn1
TERMINAL_BW [1]: 217.2 g
APTT [1]: 22.4 s
Bas [1]: 0%
Eos [1]: 0.6%
Fbg [1]: 290.8 mg/dL
Hb [1]: 12.9 g/dL
Ht [1]: 38.8%
Lym [1]: 80.4%
MCH [1]: 21.3 pg
MCHC [1]: 33.4%
MCV [1]: 63.8 fL
Mono [1]: 1.8%
Neu [1]: 16.4%
PT [1]: 15.9 s
Plat [1]: 125.8 x10_4/uL
RBC [1]: 609 x10_4/ul
Ret [1]: 6.8%
WBC [1]: 107.9 x10_2/uL
KIDNEY_L [1]: 1 g
KIDNEY_R [1]: 1 g
KIDNEY_TOTAL [1]: 2 g
LIVER [1]: 10.2 g
A/G [1]: 1.2
ALP [1]: 1533 IU/L
ALT [1]: 39.2 IU/L
AST [1]: 68 IU/L
BUN [1]: 16.8 mg/dL
CRE [1]: 0.2 mg/dL
Ca [1]: 10.9 mg/dL
Cl [1]: 106.4 meq/L
DBIL [1]: 0.002 mg/dL
GLC [1]: 187.2 mg/dL
IP [1]: 7.1 mg/dL
K [1]: 4.4 meq/L
LDH [1]: 210.8 IU/L
Na [1]: 142.6 meq/L
PL [1]: 140.6 mg/dL
RALB [1]: 3 g/dL
TBIL [1]: 0.012 mg/dL
TC [1]: 75.4 mg/dL
TG [1]: 86.8 mg/dL
TP [1]: 5.6 g/dL
gamma-GTP [1]: 1 IU/L
TERMINAL_BW [2]: 246.2 g
TERMINAL_BW [3]: 277 g
TERMINAL_BW [4]: 347.3 g
APTT [2]: 21.1 s
Bas [2]: 0%
Eos [2]: 0.6%
Fbg [2]: 320.8 mg/dL
Hb [2]: 13.4 g/dL
Ht [2]: 39.8%
Lym [2]: 80.2%
MCH [2]: 20.8 pg
MCHC [2]: 33.6%
MCV [2]: 61.8 fL
Mono [2]: 2%
Neu [2]: 16.4%
PT [2]: 17 s
Plat [2]: 131 x10_4/uL
RBC [2]: 644.2 x10_4/ul
Ret [2]: 5.8%
WBC [2]: 122.7 x10_2/uL
APTT [3]: 21.6 s
Bas [3]: 0%
Eos [3]: 1%
Fbg [3]: 303.8 mg/dL
Hb [3]: 14 g/dL
Ht [3]: 40.9%
Lym [3]: 81.8%
MCH [3]: 20.3 pg
MCHC [3]: 34.2%
MCV [3]: 59.4 fL
Mono [3]: 2%
Neu [3]: 14.4%
PT [3]: 16.7 s
Plat [3]: 112.6 x10_4/uL
RBC [3]: 689.8 x10_4/ul
Ret [3]: 4.2%
WBC [3]: 133.3 x10_2/uL
APTT [4]: 23.4 s
Bas [4]: 0%
Eos [4]: 1%
Fbg [4]: 288.2 mg/dL
Hb [4]: 14.7 g/dL
Ht [4]: 42.7%
Lym [4]: 79%
MCH [4]: 19.5 pg
MCHC [4]: 34.3%
MCV [4]: 56.9 fL
Mono [4]: 1.6%
Neu [4]: 17.4%
PT [4]: 16.1 s
Plat [4]: 97.6 x10_4/uL
RBC [4]: 751.4 x10_4/ul
Ret [4]: 2.9%
WBC [4]: 92 x10_2/uL
KIDNEY_L [2]: 1 g
KIDNEY_R [2]: 1 g
KIDNEY_TOTAL [2]: 2.1 g
KIDNEY_L [3]: 1.1 g
KIDNEY_R [3]: 1.1 g
KIDNEY_TOTAL [3]: 2.3 g
KIDNEY_L [4]: 1.3 g
KIDNEY_R [4]: 1.3 g
KIDNEY_TOTAL [4]: 2.5 g
LIVER [2]: 10.9 g
LIVER [3]: 11.5 g
LIVER [4]: 13.4 g
A/G [2]: 1.2
ALP [2]: 1666.2 IU/L
ALT [2]: 40 IU/L
AST [2]: 68 IU/L
BUN [2]: 17.8 mg/dL
CRE [2]: 0.2 mg/dL
Ca [2]: 10.6 mg/dL
Cl [2]: 107.4 meq/L
DBIL [2]: 0 mg/dL
GLC [2]: 182.4 mg/dL
IP [2]: 7.3 mg/dL
K [2]: 4.4 meq/L
LDH [2]: 164.4 IU/L
Na [2]: 144.4 meq/L
PL [2]: 146.6 mg/dL
RALB [2]: 3 g/dL
TBIL [2]: 0.01 mg/dL
TC [2]: 72.6 mg/dL
TG [2]: 125.8 mg/dL
TP [2]: 5.6 g/dL
gamma-GTP [2]: 1.8 IU/L
A/G [3]: 1.1
ALP [3]: 1834 IU/L
ALT [3]: 39.6 IU/L
AST [3]: 68 IU/L
BUN [3]: 19 mg/dL
CRE [3]: 0.2 mg/dL
Ca [3]: 10.1 mg/dL
Cl [3]: 107.4 meq/L
DBIL [3]: 0.002 mg/dL
GLC [3]: 194.8 mg/dL
IP [3]: 6.7 mg/dL
K [3]: 4.1 meq/L
LDH [3]: 160.2 IU/L
Na [3]: 142.4 meq/L
PL [3]: 138 mg/dL
RALB [3]: 3 g/dL
TBIL [3]: 0.008 mg/dL
TC [3]: 63.8 mg/dL
TG [3]: 128 mg/dL
TP [3]: 5.5 g/dL
gamma-GTP [3]: 1.2 IU/L
A/G [4]: 1.2
ALP [4]: 1175.4 IU/L
ALT [4]: 42.6 IU/L
AST [4]: 66.4 IU/L
BUN [4]: 18.6 mg/dL
CRE [4]: 0.2 mg/dL
Ca [4]: 10.2 mg/dL
Cl [4]: 107.8 meq/L
DBIL [4]: 0.004 mg/dL
GLC [4]: 183.6 mg/dL
IP [4]: 6 mg/dL
K [4]: 4.1 meq/L
LDH [4]: 156 IU/L
Na [4]: 143.2 meq/L
PL [4]: 131.8 mg/dL
RALB [4]: 3.1 g/dL
TBIL [4]: 0.012 mg/dL
TC [4]: 67 mg/dL
TG [4]: 103 mg/dL
TP [4]: 5.7 g/dL
gamma-GTP [4]: 1.8 IU/L
TERMINAL_BW [5]: 219.5 g
APTT [5]: 21.1 s
Bas [5]: 0%
Eos [5]: 0.8%
Fbg [5]: 343 mg/dL
Hb [5]: 13 g/dL
Ht [5]: 39.1%
Lym [5]: 79%
MCH [5]: 21.6 pg
MCHC [5]: 33.2%
MCV [5]: 65 fL
Mono [5]: 1.6%
Neu [5]: 18%
PT [5]: 16 s
Plat [5]: 116.7 x10_4/uL
RBC [5]: 603.4 x10_4/ul
Ret [5]: 7%
WBC [5]: 85.5 x10_2/uL
KIDNEY_L [5]: 1 g
KIDNEY_R [5]: 1 g
KIDNEY_TOTAL [5]: 2 g
LIVER [5]: 10.9 g
A/G [5]: 1.1
ALP [5]: 1503.8 IU/L
ALT [5]: 43.2 IU/L
AST [5]: 72.2 IU/L
BUN [5]: 16.8 mg/dL
CRE [5]: 0.2 mg/dL
Ca [5]: 10.9 mg/dL
Cl [5]: 107 meq/L
DBIL [5]: 0 mg/dL
GLC [5]: 188.2 mg/dL
IP [5]: 7.8 mg/dL
K [5]: 4.2 meq/L
LDH [5]: 181 IU/L
Na [5]: 143.6 meq/L
PL [5]: 149.8 mg/dL
RALB [5]: 2.9 g/dL
TBIL [5]: 0.006 mg/dL
TC [5]: 80.6 mg/dL
TG [5]: 108.2 mg/dL
TP [5]: 5.6 g/dL
gamma-GTP [5]: 1.2 IU/L
TERMINAL_BW [6]: 229.9 g
TERMINAL_BW [7]: 284.8 g
TERMINAL_BW [8]: 353.5 g
APTT [6]: 22.1 s
Bas [6]: 0%
Eos [6]: 1%
Fbg [6]: 323.4 mg/dL
Hb [6]: 13.7 g/dL
Ht [6]: 40.5%
Lym [6]: 82.8%
MCH [6]: 20.8 pg
MCHC [6]: 33.8%
MCV [6]: 61.6 fL
Mono [6]: 2%
Neu [6]: 13.2%
PT [6]: 16.4 s
Plat [6]: 120.4 x10_4/uL
RBC [6]: 658 x10_4/ul
Ret [6]: 4.8%
WBC [6]: 113.4 x10_2/uL
APTT [7]: 21.3 s
Bas [7]: 0%
Eos [7]: 0.6%
Fbg [7]: 297.6 mg/dL
Hb [7]: 14.3 g/dL
Ht [7]: 42.1%
Lym [7]: 83.6%
MCH [7]: 20.8 pg
MCHC [7]: 34%
MCV [7]: 61.1 fL
Mono [7]: 1.6%
Neu [7]: 13.2%
PT [7]: 16.2 s
Plat [7]: 116 x10_4/uL
RBC [7]: 689.4 x10_4/ul
Ret [7]: 4.6%
WBC [7]: 120.5 x10_2/uL
APTT [8]: 22.8 s
Bas [8]: 0%
Eos [8]: 1.2%
Fbg [8]: 307.8 mg/dL
Hb [8]: 15.3 g/dL
Ht [8]: 44.4%
Lym [8]: 78.8%
MCH [8]: 20.2 pg
MCHC [8]: 34.5%
MCV [8]: 58.6 fL
Mono [8]: 2.2%
Neu [8]: 17.2%
PT [8]: 15.8 s
Plat [8]: 96.3 x10_4/uL
RBC [8]: 758 x10_4/ul
Ret [8]: 2.6%
WBC [8]: 105 x10_2/uL
KIDNEY_L [6]: 1 g
KIDNEY_R [6]: 1 g
KIDNEY_TOTAL [6]: 2 g
KIDNEY_L [7]: 1.1 g
KIDNEY_R [7]: 1.2 g
KIDNEY_TOTAL [7]: 2.3 g
KIDNEY_L [8]: 1.2 g
KIDNEY_R [8]: 1.3 g
KIDNEY_TOTAL [8]: 2.5 g
LIVER [6]: 10.6 g
LIVER [7]: 12.3 g
LIVER [8]: 14.3 g
A/G [6]: 1.1
ALP [6]: 1638.2 IU/L
ALT [6]: 35.6 IU/L
AST [6]: 66.6 IU/L
BUN [6]: 18.6 mg/dL
CRE [6]: 0.2 mg/dL
Ca [6]: 10.4 mg/dL
Cl [6]: 108.8 meq/L
DBIL [6]: 0 mg/dL
GLC [6]: 174.6 mg/dL
IP [6]: 6.8 mg/dL
K [6]: 4.7 meq/L
LDH [6]: 183.8 IU/L
Na [6]: 144.2 meq/L
PL [6]: 129.6 mg/dL
RALB [6]: 3 g/dL
TBIL [6]: 0.008 mg/dL
TC [6]: 63.2 mg/dL
TG [6]: 109.2 mg/dL
TP [6]: 5.7 g/dL
gamma-GTP [6]: 1 IU/L
A/G [7]: 1.1
ALP [7]: 1409 IU/L
ALT [7]: 39.4 IU/L
AST [7]: 68.6 IU/L
BUN [7]: 17.6 mg/dL
CRE [7]: 0.2 mg/dL
Ca [7]: 10.2 mg/dL
Cl [7]: 108.2 meq/L
DBIL [7]: 0.002 mg/dL
GLC [7]: 175.4 mg/dL
IP [7]: 6.7 mg/dL
K [7]: 4.2 meq/L
LDH [7]: 177.2 IU/L
Na [7]: 143.2 meq/L
PL [7]: 137.2 mg/dL
RALB [7]: 2.9 g/dL
TBIL [7]: 0.012 mg/dL
TC [7]: 71.8 mg/dL
TG [7]: 88.8 mg/dL
TP [7]: 5.6 g/dL
gamma-GTP [7]: 1 IU/L
A/G [8]: 1.2
ALP [8]: 1369.6 IU/L
ALT [8]: 45.8 IU/L
AST [8]: 73.4 IU/L
BUN [8]: 20.4 mg/dL
CRE [8]: 0.2 mg/dL
Ca [8]: 10.3 mg/dL
Cl [8]: 107.6 meq/L
DBIL [8]: 0.004 mg/dL
GLC [8]: 189 mg/dL
IP [8]: 6.5 mg/dL
K [8]: 3.9 meq/L
LDH [8]: 183.6 IU/L
Na [8]: 143.2 meq/L
PL [8]: 142.6 mg/dL
RALB [8]: 3.2 g/dL
TBIL [8]: 0.026 mg/dL
TC [8]: 72.4 mg/dL
TG [8]: 111 mg/dL
TP [8]: 5.7 g/dL
gamma-GTP [8]: 1.4 IU/L
